From patent publication US4731357A (Imperial Chemical Industries PLC, priority 1985, dated 1988)

Legend:
[1] = tested on: sectioned Achilles tendons; test: Healing of sectioned Achilles tendons in the rat, urogastrone injected twice daily at the tendon lesion (experiment 1, Table 1); format: in vivo
Description: (§1) Male Wistar rats (240 g.) were subjected under general anaesthesia to partial tendonotomy of the left Achilles tendon, the small skin wound was then sutured and the animals allowed to recover. […] Normal saline was injected into a control group of operated animals (group [C]). […] After termination the scar tissue was removed from the point of insertion into the calcaneus bone to the point of merger of the tendon into the muscle mass. Weights of the scar tissue were measured after drying and defatting as described in Greenwald, S. E. and Berry, C. L. Cardiovasc. Res. 12,364-372 (1978). The collagen content was obtained from hydroxyproline measurements as described in Grant, R. A. J. Clin. Path. 17, 685-686 (1964) on the tissue after proteolytic (see Smith, R. L., Gilberson, E., Koliatsu, N., Merchant, T. and Schurman, D. J. Analyst. Biochem. 103, 191-200 (1980)) and alkaline (see Huzar, G., Maiocco, J. and Naftolin, F. Analyt. Biochem. 105 424-439 (1980)) digestion. The DNA content of the digests was determined using a sensitive fluorimetric technique (as described in Hinegardner, R. T. Analyt. Biochem. 39, 197-201). The results are ±SEM and were analyzed by Student' s t test. Figures in parentheses indicate the numbers of animals used in each group.

[2] = tested on: Intact tendon; test: Urogastrone injected twice daily into the corresponding region of the unoperated leg (intact tendon, group B, Table 1); format: in vivo, rat; conditions: for Collagen / DNA / dry wt: intact tendon plus urogastrone 20 μg./kg. twice daily, ±SEM
Description: as §1

[3] = tested on: sectioned Achilles tendons; test: Longer term effects of urogastrone injections on healing of sectioned Achilles tendons in the rat (experiment 2, Table 2); format: in vivo; conditions: for Lesion DNA / Lesion dry wt / Lesion Collagen: ±SEM
Description: as §1

[4] = tested on: sectioned Achilles tendon; test: Graded doses of urogastrone on healing of sectioned Achilles tendons in rats (Example 2, FIGS. 3 and 4); format: in vivo, rat; conditions: 15 days after surgery
Description: The graded doses were injected twice daily into the immediate vicinity of the sectioned tendon.
FIG. 4 corresponds to FIG. 3, but represents graphically the collagen content of the repair lesions at the injected zone 15 days after surgery rather than the dry weight of the scar tissue formed at the said zone 15 days after surgery.
The rats employed were male Wistar rats (240 g) and the Achilles tendons were sectioned as described in Example 1.
Graded doses of urogastrone were given twice daily by injection into the immediate vicinity of the sectioned Achilles tendon in rats. […] FIGS. 3 and 4 present the dry weights and collagen contents respectively of the injected zones 15 days after surgery.

[5] = tested on: intact tendons; test: Urogastrone 100 ug/kg injected twice daily into intact tendons in unoperated rats (Example 2); format: in vivo, rat; conditions: highest dose (100 ug./kg. twice daily); 15 days
[6] = tested on: acid secretion in the stomach; conditions: administered parenterally; known; cited from earlier work
[7] = 5 days after surgery, sectioned tendon, 20 μg./kg. twice daily at lesion, ±SEM, p < 0.001 vs saline
[8] = 9 days after surgery, sectioned tendon, 20 μg./kg. twice daily at lesion, ±SEM, p < 0.001 vs saline
[9] = first five days following surgery, statistically highly significant
[10] = 30 days after surgery, urogastrone days 1-15 then 15 days without treatment, NS vs saline

With Urogastrone the “Lesion DNA” value [1, 7] was 517 ± 12 µg, the Lesion dry wt [1, 7] was 42.9 ± 2.0 mg and the “Lesion DNA” value [1, 8] was 653 ± 20 µg. The Lesion dry wt [1, 8] was 61.1 ± 2.0 mg, the “Lesion Collagen” value ([1]; 9 days after surgery, sectioned tendon, 20 μg./kg. twice daily at lesion, ±SEM, p < 0.05 vs saline) was 16.8 ± 0.9 mg and the “Lesion DNA” value ([1]; 15 days after surgery, sectioned tendon, 20 μg./kg. twice daily at lesion, ±SEM, NS vs saline) was 556 ± 23 µg. For the same substance, the Lesion dry wt ([1]; 15 days after surgery, sectioned tendon, 20 μg./kg. twice daily at lesion, ±SEM, p < 0.001 vs saline) was 53.3 ± 2.8 mg, the “Apparent increase in DNA content of urogastrone-treated lesions” value ([1]; day 15, not significantly different from the control value) was 8% and the “Increase in collagen over saline-injected controls” value ([1]; fifteen days after surgery) was 28%. The “Increase in dry weight over saline-injected controls” value ([1]; fifteen days after surgery) was 24%, the “Increase in collagen content of scar tissue compared with saline-injected controls” value [1, 9] was 61% and the “Increase in dry weight of scar tissue compared with saline-injected controls” value [1, 9] was 38%. It also gave a Collagen ([2]; 5 days, NS vs intact tendon) of 6.1 ± 0.3 mg, a DNA ([2]; 5 days, NS vs intact tendon) of 94.3 ± 8.5 µg and a dry wt ([2]; 5 days, NS vs intact tendon) of 12.7 ± 1.6 mg. The Collagen ([2]; 9 days, NS vs intact tendon) was 7.0 ± 0.5 mg, the dry wt ([2]; 9 days, NS vs intact tendon) was 14.1 ± 1.2 mg and the DNA ([2]; 9 days, p < 0.05 vs intact tendon) was 124 ± 10 µg. The Collagen ([2]; 15 days, NS vs intact tendon) was 7.0 ± 0.3 mg, the DNA ([2]; 15 days, NS vs intact tendon) was 101 ± 6 µg and the “Effect on unoperated tendon in the opposite leg” value ([2]; injected twice daily, throughout the treatment period, possible exception of increased DNA content after nine days) was “little or no effect”. The “Lesion DNA” value ([3]; 15 days after surgery, urogastrone days 1-15, 20 ug./kg. twice daily, NS vs saline) was 668 ± 32 µg, the Lesion dry wt ([3]; 15 days after surgery, urogastrone days 1-15, 20 ug./kg. twice daily, p < 0.001 vs saline) was 61.8 ± 1.3 mg and the “Lesion Collagen” value ([3]; 15 days after surgery, urogastrone days 1-15, 20 ug./kg. twice daily, p < 0.01 vs saline) was 28.1 ± 0.9 mg. For the same substance, the “Lesion Collagen” value [3, 10] was 28.7 ± 1.2 mg, the Lesion dry wt [3, 10] was 50.2 ± 1.1 mg and the “Lesion DNA” value ([3]; 30 days after surgery, urogastrone days 1-15 then 15 days without treatment, p < 0.05 vs saline) was 397 ± 17 µg. For the same substance, the “Lesion DNA” value ([3]; 30 days after surgery, urogastrone days 1-30, 20 ug./kg. twice daily, NS vs saline) was 495 ± 17 µg, the “Lesion Collagen” value ([3]; 30 days after surgery, urogastrone days 1-30, 20 ug./kg. twice daily, p < 0.001 vs saline) was 32.1 ± 1.3 mg and the Lesion dry wt ([3]; 30 days after surgery, urogastrone days 1-30, 20 ug./kg. twice daily, p < 0.01 vs saline) was 56.8 ± 2.0 mg. The “Dry weight and collagen content of the scars versus animals untreated throughout” value ([3]; dosing stopped after fifteen days, treatment free for a further fifteen days) was “no longer distinguishable”, the “Collagen content of repair lesion higher than saline-treated control lesions” value ([3]; thirty days on urogastrone) was 27% and the “DNA contents of urogastrone versus saline-treated lesions” value ([3]; thirty days on urogastrone) was “essentially the same”. For the same substance, the “Dry weight of repair lesion higher than saline-treated control lesions” value ([3]; thirty days on urogastrone) was 19%, the “Collagen contents of the repair lesions” value ([4]; 20 μg./kg. twice daily) was “not in the collagen contents” and the “Dry weights of the repair lesions” value ([4]; 20 μg./kg. twice daily) was “statistically significant increase”. For the same substance, the “Collagen contents of the repair lesions” value ([4]; 50 μg./kg. twice daily) was “significantly increased”, the “Dry weights of the repair lesions” value ([4]; 50 μg./kg. twice daily) was “significantly increased” and the “Collagen contents of the repair lesions” value ([4]; 100 μg./kg. twice daily) was “significantly increased”. The “Dry weights of the repair lesions” value ([4]; 100 μg./kg. twice daily) was “significantly increased”, the Collagen contents [5] was “increased” and the Dry weight [5] was “increased”. For the same substance, the “Acid secretion in the stomach” value [6] was “inhibit acid secretion in the stomach”.
